In patent US10238658B2, “1-pyrazolyl-3-(4-((2-anilinopyrimidin-4-yl) oxy) napththalen-1-yl) ureas as p38 MAP kinase inhibitors” (Respivert Limited, priority 2011, dated 2019) one finds IC50, EC50 and inhibition data, which are given here for 14 compounds.

Some results are limits rather than exact numbers.

What all share (format): cell-based
For experiment [1], the system named is TNFα. In words: LPS-induced TNFα release in THP-1 cells. Particulars: Homo sapiens, THP-1, THP1 cells. The method, then:
THP-1 cells, a human monocytic cell line, were stimulated with 3 μg/mL of LPS (from E. Coli; 0111:B4, Sigma) for 4 hr and the supernatant collected for determination of the TNFα concentration by sandwich ELISA (Duo-set, R&D systems). The inhibition of TNFα production was calculated at each concentration by comparison with vehicle control.

The subject of experiment [2] is IL-8. The experiment can be described thus: LPS-induced IL-8 release in d-U937 cells. The settings on record: Homo sapiens, dU937, dU937 cells. The method, then: (§1) U937 cells, a human monocytic cell line, were differentiated into macrophage-type cells by incubation with PMA (100 ng/mL) for 48 to 72 hr. Cells were pre-incubated with final concentrations of test compound for 2 hr and were then stimulated with LPS (0.1 μg/mL; from E. Coli: O111:B4, Sigma) for 4 hr. The supernatant was collected for determination of TNFα and IL-8 concentrations by sandwich ELISA (Duo-set, R&D systems). […] The relative 50% effective concentration (REC50) was determined from the resultant concentration-response curve. The inhibition of IL-8 production was calculated at each concentration of test compound by comparison with vehicle control.

Experiment [3] deals with TNFα. In words: LPS-induced TNFα release in d-U937 cells. The settings on record: Homo sapiens, dU937, dU937 cells; relative to 10 μg/mL BIRB796; read-out: LPS Induced Release TNFα REC50 (dU937). The method, then: as §1
The subject of experiment [4] is HRV16. In words: HRV16 induced CPE in MRC5 cells. The settings on record: Human rhinovirus sp., HRV16, MRC5, at 0.04 μg/mL; read-out: HRV CPE (MRC5) % inhibition. The method, then:
The supernatants were aspirated, and then fresh media added followed by incubation for 4 days. Where appropriate, cells were pre-incubated with compound or DMSO for 2 hr, and the compounds and DMSO added again after washout of the virus.
The percentage inhibition for each well was calculated. The IC50 value was calculated from the concentration-response curve generated by the serial dilutions of the test compounds.

In experiment [5] the test system is IL-8. In words: Rhinovirus-induced IL-8 release in BEAS2B cells. Particulars: Homo sapiens, BEAS-2B, at 0.04 μg/mL; read-out: HRV IL-8 (BEAS2B) % inhibition. The method, then:
Human rhinovirus RV16 was obtained from the American Type Culture Collection (Manassas, Va.). Viral stocks were generated by infecting Hela cells with HRV until 80% of the cells were cytopathic.
BEAS2B cells were infected with HRV at an MOI of 5 and incubated for 2 hr at 33° C. with gentle shaking for to promote absorption. The cells were then washed with PBS, fresh media added and the cells were incubated for a further 72 hr. The supernatant was collected for assay of IL-8 concentrations using a Duoset ELISA development kit (R&D systems, Minneapolis, Minn.). […]

As a reminder, the IC50 is the concentration at which inhibition is half-maximal. The term inhibition denotes the drop in the measured response relative to a control, in per cent. For `CC(C)(C)c1cc(NC(=O)Nc2ccc(Oc3ccnc(Nc4ccccc4)n3)c3ccccc23)n(-c2ccc(O)cc2)n1` [Example 3, 1-(3-(tert-butyl)-1-(4-hydroxyphenyl)-1H-pyrazol-5-yl)-3-(4-((2-(phenylamino)pyrimidin-4-yl)oxy)naphthalen-1-yl)urea], the 50% inhibitory concentration (IC50) in experiment [1] came out at 1.2 nM; in experiment [2] it was 1.8 nM. Moreover, the EC50 in experiment [3] stood at 1.7 nM. For the same compound, the inhibition at 0.04 µg/mL in experiment [4] and in experiment [5] was 100% each time.
Regarding `Cc1ccc(-n2nc(C(C)(C)C)cc2NC(=O)Nc2ccc(Oc3ccnc(Nc4ccccc4F)n3)c3ccccc23)cc1` [Example 4, 1-(3-(tert-butyl)-1-(p-tolyl)-1H-pyrazol-5-yl)-3-(4-((2-((2-fluorophenyl)amino)pyrimidin-4-yl)oxy)naphthalen-1-yl)urea], the IC50 stood at 4.6 nM in experiment [1] and 2.3 nM in experiment [2]. In addition, the EC50 in experiment [3] is 3.1 nM. In addition, the values for the inhibition at 0.04 µg/mL in experiment [4] and in experiment [5] were 44% and 100%, respectively.
For `Cc1ccc(-n2nc(C(C)(C)C)cc2NC(=O)Nc2ccc(Oc3ccnc(Nc4ccccc4Cl)n3)c3ccccc23)cc1` [Example 6, 1-(3-(tert-butyl)-1-(p-tolyl)-1H-pyrazol-5-yl)-3-(4-((2-((2-chlorophenyl)amino)pyrimidin-4-yl)oxy)naphthalen-1-yl)urea], the IC50 in experiment [1] turned out to be 225 nM; in experiment [2], 15 nM. Also, in experiment [3], the EC50 worked out at 7 nM.
`Cc1ccc(-n2nc(C(C)(C)C)cc2NC(=O)Nc2ccc(Oc3ccnc(Nc4cc(C)ccc4C)n3)c3ccccc23)cc1` [Example 10, 1-(3-(tert-butyl)-1-(p-tolyl)-1H-pyrazol-5-yl)-3-(4-((2-((2,5-dimethylphenyl)amino)pyrimidin-4-yl)oxy)naphthalen-1-yl)urea]: the concentration for half-maximal inhibition (IC50) turned out to be 45 nM in experiment [1] and 15 nM in experiment [2]. Also, the EC50 in experiment [3] is 15 nM. For the same compound, the inhibition at 0.04 µg/mL in experiment [4] and in experiment [5] was 100% in each case.
In the case of `Cc1ccc(Nc2nccc(Oc3ccc(NC(=O)Nc4cc(C(C)(C)C)nn4-c4ccc(C)cc4)c4ccccc34)n2)cc1` [Example 11, 1-(3-(tert-butyl)-1-(p-tolyl)-1H-pyrazol-5-yl)-3-(4-((2-(p-tolylamino)pyrimidin-4-yl)oxy)naphthalen-1-yl)urea], the IC50 in experiment [1] is 21 nM; in experiment [2], > 1680 nM. The EC50 in experiment [3] came out at 35 nM. The inhibition at 0.04 µg/mL in experiment [4] and in experiment [5] was 100% throughout.
For the compound `Cc1ccc(-n2nc(C(C)(C)C)cc2NC(=O)Nc2ccc(Oc3ccnc(Nc4cccc(C)c4)n3)c3ccccc23)cc1` [Example 12, 1-(3-(tert-butyl)-1-(p-tolyl)-1H-pyrazol-5-yl)-3-(4-((2-(m-tolylamino)pyrimidin-4-yl)oxy)naphthalen-1-yl)urea], the IC50 turned out to be 30 nM in experiment [1] and 2.4 nM in experiment [2]. Also, the EC50 in experiment [3] stood at 2 nM. The inhibition at 0.04 µg/mL in experiment [4] and in experiment [5] was 100% in each case.
Take `Cc1ccc(-n2nc(C(C)(C)C)cc2NC(=O)Nc2ccc(Oc3ccnc(Nc4cccc(Cl)c4)n3)c3ccccc23)cc1` [Example 13, 1-(3-(tert-butyl)-1-(p-tolyl)-1H-pyrazol-5-yl)-3-(4-((2-((3-chlorophenyl)amino)pyrimidin-4-yl)oxy)naphthalen-1-yl)urea]: the IC50 in experiment [1] was 1600 nM; in experiment [2], > 1620 nM. For the same compound, in experiment [3], the EC50 was > 1620 nM. Further, the inhibition at 0.04 µg/mL in experiment [4] and in experiment [5] was 100% in each case.
On to `COc1cccc(Nc2nccc(Oc3ccc(NC(=O)Nc4cc(C(C)(C)C)nn4-c4ccc(C)cc4)c4ccccc34)n2)c1` [Example 14, 1-(3-(tert-butyl)-1-(p-tolyl)-1H-pyrazol-5-yl)-3-(4-((2-((3-methoxyphenyl)amino)pyrimidin-4-yl)oxy)naphthalen-1-yl)urea], for which the IC50 in experiment [1] worked out at 2.7 nM; in experiment [2] it was 1.6 nM. For the same compound, the EC50 in experiment [3] worked out at 2 nM. In addition, the inhibition at 0.04 µg/mL in experiment [4] and in experiment [5] was 100% throughout.
Take `Cc1ccc(-n2nc(C(C)(C)C)cc2NC(=O)Nc2ccc(Oc3ccnc(Nc4cccc(F)c4)n3)c3ccccc23)cc1` [Example 15, 1-(3-(tert-butyl)-1-(p-tolyl)-1H-pyrazol-5-yl)-3-(4-((2-((3-fluorophenyl)amino)pyrimidin-4-yl)oxy)naphthalen-1-yl)urea]: the IC50 in experiment [1] is 3 nM; in experiment [2], 2.3 nM. Further, the EC50 in experiment [3] was found to be 2.2 nM. Moreover, the inhibition at 0.04 µg/mL in experiment [4] and in experiment [5] was 100% throughout.
Regarding `COc1ccc(Nc2nccc(Oc3ccc(NC(=O)Nc4cc(C(C)(C)C)nn4-c4ccc(C)cc4)c4ccccc34)n2)cc1` [Example 17, 1-(3-(tert-butyl)-1-(p-tolyl)-1H-pyrazol-5-yl)-3-(4-((2-((4-methoxyphenyl)amino)pyrimidin-4-yl)oxy)naphthalen-1-yl)urea], the IC50 is 4.3 nM in experiment [1] and 2.1 nM in experiment [2]. Besides, the EC50 in experiment [3] came to 2 nM. For the same compound, the inhibition at 0.04 µg/mL was ≤ 0% in experiment [4] and 100% in experiment [5].
Taken in the same sequence, the figures for `Cc1ccc(-n2nc(C(C)(C)C)cc2NC(=O)Nc2ccc(Oc3ccnc(Nc4ccccc4C(C)C)n3)c3ccccc23)cc1` [Example 20, 1-(3-(tert-butyl)-1-(p-tolyl)-1H-pyrazol-5-yl)-3-(4-((2-((2-isopropylphenyl)amino)pyrimidin-4-yl)oxy)naphthalen-1-yl)urea] were 121 nM, 23 nM, 18 nM, ≤ 0% and 100%.
The like results for `COc1ccc(Nc2nccc(Oc3ccc(NC(=O)Nc4cc(C(C)(C)C)nn4-c4ccc(C)cc4)c4ccccc34)n2)cc1Cl` [Example 28, 1-(3-(tert-butyl)-1-(p-tolyl)-1H-pyrazol-5-yl)-3-(4-((2-((3-chloro-4-methoxyphenyl)amino)pyrimidin-4-yl)oxy)naphthalen-1-yl)urea] were, in that order, 0.4 nM, 18 nM, 14 nM, 54% and 100%.
Taken in the same sequence, the figures for `Cc1ccc(-n2nc(C(C)(C)C)cc2NC(=O)Nc2ccc(Oc3ccnc(Nc4ccc(O)cc4F)n3)c3ccccc23)cc1` [Example 30, 1-(3-(tert-butyl)-1-(p-tolyl)-1H-pyrazol-5-yl)-3-(4-((2-((2-fluoro-4-hydroxyphenyl)amino)pyrimidin-4-yl)oxy)naphthalen-1-yl)urea] were 1.6 nM, 3 nM, 1 nM, ≤ 0% and 100%.
As for `COCC(=O)Nc1cc(Oc2ccc(NC(=O)Nc3cc(C(C)(C)C)nn3-c3ccc(C)cc3)c3ccccc23)ccn1` [Reference Compound, N-(4-(4-(3-(3-tert-butyl-1-p-tolyl-1H-pyrazol-5-yl)ureido)naphthalen-1-yloxy)pyridin-2-yl)-2-methoxyacetamide, reference compound], the EC50 in experiment [3] stood at 0.13 nM.
